The assay has as its system RSV strain A2. Briefly: in vitro cytoprotection assay against RSV in Hep2 cells. The assay is classed as cell-based. The conditions noted are these: human respiratory syncytial virus, HEp-2, 96 h; 1 uM compound; RSV-induced cytopathic effect in Hep2 cells, 4 days, Cell TiterGlo; read-out: RSV % inh. @ 1 uM. The procedure: Antiviral activity against RSV was determined using an in vitro cytoprotection assay in Hep2 cells. […] The method used is similar to methods previously described in Chapman J et al., “RSV604 a novel inhibitor of respiratory syncytial virus replication,” Antimicrob Agents Chemother, 51(9):3346-53 (2007).
Hep2 cells were obtained from ATCC (Manassas, Va.) and maintained in MEM media supplemented with 10% fetal bovine serum and penicillin/streptomycin. Cells were passaged twice a week and kept at subconfluent stage. Commercial stock of RSV strain A2 (Advanced Biotechnologies, Columbia, Md.) was titered before compound testing to determine the appropriate dilution of the virus stock that generates desirable cytopathic effect in Hep2 cells.
For antiviral tests, Hep2 cells were seeded into 96-well plates 24 hours before the assay at a density of 3,000 cells/well. On a separate 96well plate, tested compounds were serially diluted in cell culture media. Eight concentrations in 3-fold serial dilution increments were prepared for each tested compound and 100 uL/well of each dilution was transferred in duplicate onto plates with seeded Hep2 cells. Subsequently, appropriate dilution of virus stock previously determined by titration was prepared in cell culture media and 100 uL/well was added to test plates containing cells and serially diluted compounds. Each plate included three wells of infected untreated cells and three wells of uninfected cells that served as 0% and 100% virus inhibition control, respectively. Following the infection with RSV, testing plates were incubated for 4 days in a tissue culture incubator. After the incubation, RSV-induced cytopathic effect was determined using a Cell TiterGlo reagent (Promega, Madison, Wis.) followed by a luminescence read-out. The percentage inhibition was calculated for each tested concentration relative to the 0% and 100% inhibition controls and the EC50 value for each compound was determined by non-linear regression as a concentration inhibiting the RSV-induced cytopathic effect by 50%. Ribavirin (purchased from Sigma, St. Louis, Mo.) was used as a positive control for antiviral activity.
For orientation: Damage to the host cells serves as the signal in cytopathic effect assays.
Consider `O=C(NC1CC1)c1cc2c(s1)-c1ccccc1N(C(=O)c1ccc(NC(=O)c3cccnc3Br)cc1)CC2` [Example 1], for which the inhibition at 1 µM stood at 76%. With `O=C(NC1CC1)c1cc2c(s1)-c1ccccc1N(C(=O)c1ccc(NC(=O)c3ccccc3I)cc1)CC2` [Example 2], the inhibition at 1 µM is 78%. As for `O=C(NC1CC1)c1cc2c(s1)-c1ccccc1N(C(=O)c1ccc(NC(=O)c3ccccc3N3CCCC3)cc1)CC2` [Example 3], the figure is 100%; as for `O=C(NC1CC1)c1cc2c(s1)-c1ccccc1N(C(=O)c1ccc(NC(=O)c3ccncc3Br)cc1)CC2` [Example 4], 78%; as for `O=C(NC1CC1)c1cc2c(s1)-c1ccccc1N(C(=O)c1ccc(NC(=O)c3ncccc3Br)cc1)CC2` [Example 5], 79%. As for `C[C@@H]1CCCN1c1ncccc1C(=O)Nc1ccc(C(=O)N2CCc3cc(C(=O)NC4CC4)sc3-c3ccccc32)cc1` [Example 6], the figure is 100%; as for `O=C(NC1CC1)c1cc2c(s1)-c1ccccc1N(C(=O)c1ccc(NC(=O)c3cccnc3N3CC(F)(F)C3)cc1)CC2` [Example 7], 100%; as for `O=C(NC1CC1)c1cc2c(s1)-c1ccccc1N(C(=O)c1ccc(NC(=O)c3ccccc3-c3ccc(F)cc3)cc1)CC2` [Example 8], 100%.

In the case of `O=C(NC1CC1)c1cc2c(s1)-c1ccccc1N(C(=O)c1ccc(NC(=O)c3cccnc3N3CCC(F)(F)C3)cc1)CC2` [Example 9], the inhibition at 1 µM is 100%. With `O=C(NC1CC1)c1cc2c(s1)-c1ccccc1N(C(=O)c1ccc(NC(=O)c3cccnc3N3CC4(COC4)C3)cc1)CC2` [Example 10] the figure was 100%.

In the case of `O=C(NC1CC1)c1cc2c(s1)-c1ccccc1N(C(=O)c1ccc(NC(=O)c3ccccc3-c3cccs3)cc1)CC2` [Example 11], the inhibition at 1 µM stood at 99%.

Take `O=C(NC1CC1)c1cc2c(s1)-c1ccccc1N(C(=O)c1ccc(NC(=O)c3ccncc3N3CCC3)cc1)CC2` [Example 12]: the inhibition at 1 µM was determined as 97%.

On to `CC(C)c1ccccc1C(=O)Nc1ccc(C(=O)N2CCc3cc(C(=O)NC4CC4)sc3-c3ccccc32)cc1` [Example 13], for which the inhibition at 1 µM turned out to be 99%. In the case of `O=C(NC1CC1)c1cc2c(s1)-c1ccccc1N(C(=O)c1ccc(NC(=O)c3cnccc3C(F)(F)F)cc1)CC2` [Example 14], the inhibition at 1 µM turned out to be 100%. In the case of `COc1ccc(C(=O)Nc2ccc(C(=O)N3CCc4cc(C(=O)NC5CC5)sc4-c4ccccc43)cc2)cc1` [Example 15], the inhibition at 1 µM was 97%.

Consider `O=C(NC1CC1)c1cc2c(s1)-c1ccccc1N(C(=O)c1ccc(NC(=O)c3ccccc3Cc3ccccc3)cc1)CC2` [Example 17], for which the inhibition at 1 µM is 100%. With `O=C(Nc1ccc(C(=O)N2CCc3cc(C(=O)NC4CC4)sc3-c3ccccc32)cc1)c1cc(N2CCC2)ccn1` [Example 18] the figure was 98%.

Regarding `O=C(NC1CC1)c1cc2c(s1)-c1ccccc1N(C(=O)c1ccc(NC(=O)c3cnccc3N3CCC3)cc1)CC2` [Example 19], the inhibition at 1 µM came out at 100%.

Regarding `Cn1ccc2cccc(C(=O)Nc3ccc(C(=O)N4CCc5cc(C(=O)NC6CC6)sc5-c5ccccc54)cc3)c21` [Example 20], the inhibition at 1 µM came out at 99%.

On to `O=C(Nc1ccc(C(=O)N2CCc3cc(C(=O)NC4CC4)sc3-c3ccccc32)cc1)c1ccnc(N2CCC2)c1` [Example 21], for which the inhibition at 1 µM worked out at 94%. As to `Cc1ccsc1C(=O)Nc1ccc(C(=O)N2CCc3cc(C(=O)NC4CC4)sc3-c3ccccc32)cc1` [Example 22], the inhibition at 1 µM was 90%. Turning to `Cc1cc(C(=O)Nc2ccc(C(=O)N3CCc4cc(C(=O)NC5CC5)sc4-c4ccccc43)cc2)n(C(C)(C)C)n1` [Example 24], the inhibition at 1 µM stood at 78%. With `O=C(NC1CC1)c1cc2c(s1)-c1ccccc1N(C(=O)c1ccc(NC(=O)c3cccc4nccnc34)cc1)CC2` [Example 25] the figure was 64%; with `O=C(NC1CC1)c1cc2c(s1)-c1ccccc1N(C(=O)c1ccc(NC(=O)c3cccnc3C(F)(F)F)cc1F)CC2` [Example 26], 47%. As for `Cn1nc(C(=O)Nc2ccc(C(=O)N3CCc4cc(C(=O)NC5CC5)sc4-c4ccccc43)cc2)c2ccccc21` [Example 27], the figure is 41%; as for `Cc1ccccc1C(=O)N1CCC(C(=O)Nc2ccc(C(=O)N3CCc4cc(C(=O)NC5CC5)sc4-c4ccccc43)cc2)CC1` [Example 28], 15%. As for `Cn1nccc1C(=O)Nc1ccc(C(=O)N2CCc3cc(C(=O)NC4CC4)sc3-c3ccccc32)cc1` [Example 29], the figure is 22%. Turning to `O=C(Nc1ccc(C(=O)N2CCc3cc(C(=O)NC4CC4)sc3-c3ccccc32)cc1)c1ccc(N2CCC2)nc1` [Example 31], the inhibition at 1 µM was 30%. With `O=C(NC1CC1)c1cc2c(s1)-c1ccccc1N(C(=O)c1ccc(NS(=O)(=O)c3ccccc3)cc1)CC2` [Example 34] the figure was 90%; with `O=C(NC1CC1)c1cc2c(s1)-c1ccccc1N(C(=O)c1ccc(NC(=O)c3cccnc3N3CCCC3)cc1)CC2` [Example 37], 100%. With `O=C(NC1CC1)c1cc2c(s1)-c1ccccc1N(C(=O)c1ccc(NC(=O)c3cccnc3N3CC[C@@H](F)C3)cc1)CC2` [Example 38] the figure was 99%. With `O=C(NC1CC1)c1cc2c(s1)-c1ccccc1N(C(=O)c1ccc(NC(=O)c3cccnc3N3CC[C@H](F)C3)cc1)CC2` [Example 39] the figure was 94%; with `C[C@H]1CCCN1c1ncccc1C(=O)Nc1ccc(C(=O)N2CCc3cc(C(=O)NC4CC4)sc3-c3ccccc32)cc1` [Example 40], 98%. For `O=C(NC1CC1)c1cc2c(s1)-c1ccccc1N(C(=O)c1ccc(NC(=O)c3cccnc3N3CCC[C@H]3C(F)(F)F)cc1)CC2` [Example 42], the inhibition at 1 µM was found to be 99%. With `COC[C@@H]1CCCN1c1ncccc1C(=O)Nc1ccc(C(=O)N2CCc3cc(C(=O)NC4CC4)sc3-c3ccccc32)cc1` [Example 43] the figure was 99%; with `O=C(NC1CC1)c1cc2c(s1)-c1ccccc1N(C(=O)c1ccc(NC(=O)c3cccnc3N3CC[C@@H](O)C3)cc1)CC2` [Example 44], 77%; with `O=C(NC1CC1)c1cc2c(s1)-c1ccccc1N(C(=O)c1ccc(NC(=O)c3cccnc3N3CC(F)C3)cc1)CC2` [Example 45], 100%.

On to `O=C(NC1CC1)c1cc2c(s1)-c1ccccc1N(C(=O)c1ccc(NC(=O)c3cccnc3N3CCC3)cc1)CC2` [Example 46], for which the inhibition at 1 µM came to 98%. With `COc1ccc(C(=O)Nc2ccc(C(=O)N3CCc4cc(C(=O)NC5CC5)sc4-c4ccccc43)cc2)c(C)c1` [Example 47] the figure was 100%; with `O=C(NCc1cccs1)c1cc2c(s1)-c1ccccc1N(C(=O)c1ccc(NC(=O)c3cccnc3N3CCCC3)cc1)CC2` [Example 48], 100%. With `O=C(Nc1ccc(C(=O)N2CCc3cc(C(=O)N4CCCC4)sc3-c3ccccc32)cc1)c1cccnc1N1CCCC1` [Example 49] the figure was 30%. With `O=C(NCc1ccccn1)c1cc2c(s1)-c1ccccc1N(C(=O)c1ccc(NC(=O)c3cccnc3N3CCCC3)cc1)CC2` [Example 50] the figure was 100%. Turning to `C[C@H](NC(=O)c1cc2c(s1)-c1ccccc1N(C(=O)c1ccc(NC(=O)c3cccnc3N3CCCC3)cc1)CC2)C(N)=O` [Example 51], the inhibition at 1 µM came to 46%. For `O=C(NCc1nccs1)c1cc2c(s1)-c1ccccc1N(C(=O)c1ccc(NC(=O)c3cccnc3N3CCCC3)cc1)CC2` [Example 52], the inhibition at 1 µM turned out to be 100%. As for `NS(=O)(=O)CCNC(=O)c1cc2c(s1)-c1ccccc1N(C(=O)c1ccc(NC(=O)c3cccnc3N3CCCC3)cc1)CC2` [Example 53], the figure is 1%; as for `O=C(Nc1ccccn1)c1cc2c(s1)-c1ccccc1N(C(=O)c1ccc(NC(=O)c3cccnc3N3CCCC3)cc1)CC2` [Example 54], 99%; as for `CN(C)C(=O)c1cc2c(s1)-c1ccccc1N(C(=O)c1ccc(NC(=O)c3cccnc3N3CCCC3)cc1)CC2` [Example 55], 16%. For `CC(C)(CO)NC(=O)c1cc2c(s1)-c1ccccc1N(C(=O)c1ccc(NC(=O)c3cccnc3N3CCCC3)cc1)CC2` [Example 56], the inhibition at 1 µM stood at 93%.

Turning to `O=C(N[C@@H]1CCOC1)c1cc2c(s1)-c1ccccc1N(C(=O)c1ccc(NC(=O)c3cccnc3N3CCCC3)cc1)CC2` [Example 57], the inhibition at 1 µM was 95%. As for `O=C(NCCF)c1cc2c(s1)-c1ccccc1N(C(=O)c1ccc(NC(=O)c3cccnc3N3CCCC3)cc1)CC2` [Example 58], the figure is 100%; as for `COC1CN(C(=O)c2cc3c(s2)-c2ccccc2N(C(=O)c2ccc(NC(=O)c4cccnc4N4CCCC4)cc2)CC3)C1` [Example 59], 43%.

These data come from patent publication US8999969B2, “Anti-RSV compounds” (Gilead Sciences, Inc., priority 2009, dated 2015).
